Values quoted from earlier work in patent EP0225997A2, “Use of urea derivatives for preparing a pharmaceutical composition for the treatment of a virus-induced disease” (Die Deutsches Primatenzentrum GmbH, priority 1985, dated 1987).

Tested on: HTLV-III
Conditions: Mitsuya et al. Science, 226 page 172-174, 1984

Structure (SMILES): Cc1ccc(C(=O)Nc2ccc(S(=O)(=O)O)c3cc(S(=O)(=O)O)cc(S(=O)(=O)O)c23)cc1NC(=O)c1cccc(NC(=O)Nc2cccc(C(=O)Nc3cc(C(=O)Nc4ccc(S(=O)(=O)O)c5cc(S(=O)(=O)O)cc(S(=O)(=O)O)c45)ccc3C)c2)c1 [suramin]
- HTLV-III replications in culture: reduce HTLV-III replications in culture
